Measurements taken from ChEMBL document CHEMBL4421717, “Antagonists and agonists of bitter taste receptors and uses thereof” (2012).

Columns and labels:
[1] = molecular target: T1, Taste receptor type 2 member 46 (Homo sapiens, UniProt P59540); assay: Activity at recombinant human N-terminal rat ST3 receptor-fused TAS2R46 expressed in HEK293T cells co-expressing Galpha16gust44 assessed as activation of 3 uM strychnine-induced intracellular calcium level by FLIPR assay; assay type: functional, cell-based
T1 sequence (P59540 whole entry): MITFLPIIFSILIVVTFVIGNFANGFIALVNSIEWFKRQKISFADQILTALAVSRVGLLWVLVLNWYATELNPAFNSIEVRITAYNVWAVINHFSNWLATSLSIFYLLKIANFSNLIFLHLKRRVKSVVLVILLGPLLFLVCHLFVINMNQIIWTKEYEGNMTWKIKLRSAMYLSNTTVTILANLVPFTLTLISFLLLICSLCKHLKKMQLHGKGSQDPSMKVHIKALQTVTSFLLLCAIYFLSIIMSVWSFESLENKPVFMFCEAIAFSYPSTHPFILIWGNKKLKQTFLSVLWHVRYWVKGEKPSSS

[2] = molecular target: T1, Taste receptor type 2 member 46; assay: Antagonist activity at recombinant human N-terminal rat ST3 receptor-fused TAS2R46 expressed in HEK293T cells co-expressing Galpha16gust44 assessed as inhibition of 3 uM strychnine-induced intracellular calcium level by FLIPR assay; assay type: functional, cell-based

SMILES | EC50 [1] [µM] | IC50 [2] [µM]
CC(=O)O[C@H]1C/C=C(\C)CCC2[C@H](C)C(=O)O[C@@H]2/C=C/1C (some centres undefined) | 1.1 | 
C/C1=C\[C@H]2OC(=O)[C@@H](C)C2CC/C(C)=C/CC1 (some centres undefined) | 8.3 | 
C=C1C(=O)O[C@@H]2/C=C(\C)CC/C=C(\C)CCC12 (some centres undefined) | 8.6 | 
C/C1=C\CC(=O)/C(C)=C/[C@H]2OC(=O)[C@@H](C)C2CC1 (some centres undefined) |  | 97.8
